These results are taken from paper PMC9532951, “Identification and characterization of a novel SNAT2 (SLC38A2) inhibitor reveals synergy with glucose transport inhibition in cancer cells” (Frontiers in Pharmacology, 2022).

“And” between values parts separate entries of the source, which are not always exact repeats. Equal entries are not always repeated.

In one experiment the test system is HPAFII cells. The experiment is described as follows: Growth assay (IncuCyte confluence), HPAFII. Type of experiment: cell-based, human. The arrangement: key to Growth (Figure 6A) / cell confluence (Figure 6F): % confluence. To be noted: CB-839 10uM, replicates 1-3. As to the method:
(§1) Cells were seeded on 96-well flat bottom plates at approximately 3000 cells/well and incubated in growth medium (DMEM/F12 supplemented with 10% FBS, 2 mM glutamine) for 24 h. The next day, the growth medium was aspirated and exchanged with 300 μL/well of growth medium containing compounds at the indicated concentration. For live cell analysis, plates were placed in the IncuCyte system (Essen Bioscience), which was housed in a cell incubator (37°C, humidified atmosphere composed of 95% air and 5% CO2) and confluence measured at 6-h intervals or at the assay endpoint when untreated control cells reached a confluency >90%. Antibiotics (10 U/mL penicillin and 10 μg/ml streptomycin) were included in the treatment solutions.
(§2) Growth curves were generated using the Gompertz function of OriginPro software: y=ae^−e^(−k(x−xc))
(§3) Where a is the maximum confluence or upper asymptote, k is the growth rate coefficient, xc is the time point at which 50% confluence is reached (inflection point) and e is Euler’s number. Cell growth data are shown as % confluence.
(§4) Synergism between drug combinations was quantified using ZIP synergy scoring as calculated by SynergyFinder ([Yadav et al., 2015]).

A further experiment deals with MDA-MB-231 cells. The experiment is described as follows: Growth assay (IncuCyte confluence), MDA-MB-231. Type of experiment: cell-based, human. The arrangement: key to Growth (Figure 6A) / cell confluence (Figure 6F): % confluence. The note with it: MDA-MB-231; CB-839 10uM; replicates 1-3. As to the method:
as §1, §2, §3, §4

On to `O=C(Cc1cccc(OC(F)(F)F)c1)Nc1ccc(CCCCc2nnc(NC(=O)Cc3ccccn3)s2)nn1` [CB-839], for which the “cell confluence (Figure 6F)” value with HPAFII cells is 88.1 and 96.7 and 88.9; in the experiment on MDA-MB-231 cells it was 98.45 and 98.5 (2×).
